Consider 17 compounds from patent US20250213575A1, “8-HETEROCYCLIC-3-(PHENYLSULFONYL)-[1,2,3]TRIAZOLO[1,5A]QUINAZOLIN-5(4H)-ONE DERIVATIVES AS ANTI-BACTERIALS” (priority 2022, published 2025).

The target of the assay is AgrA (Staphylococcus aureus, UniProt P0A0I7). Briefly: cell-based. Further details: species or system S. aureus USA300 strain UAMS-1625. Conditions: for Ratio IC50 (in presence of HSA)/IC50 (in absence of HSA): 40 mg/mL HSA vs without HSA.
[1] abbreviates: IC50 at 40 mg/mL HSA, LB medium supplemented with 40 mg/mL human serum albumin.
[2] abbreviates: IC50 without HSA, LB medium, without HSA.

Sequence of AgrA (P0A0I7 whole entry): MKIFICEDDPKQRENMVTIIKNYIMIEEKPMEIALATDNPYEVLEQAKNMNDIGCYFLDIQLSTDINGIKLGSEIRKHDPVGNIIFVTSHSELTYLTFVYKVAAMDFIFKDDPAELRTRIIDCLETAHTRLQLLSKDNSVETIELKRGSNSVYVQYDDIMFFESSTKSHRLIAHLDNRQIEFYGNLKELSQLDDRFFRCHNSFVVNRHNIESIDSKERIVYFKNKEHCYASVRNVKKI

For the compound `Cc1ccc(S(=O)(=O)c2nnn3c2[nH]c(=O)c2ccc(N4C[C@@H](C)N[C@@H](C)C4)cc23)c(C)c1` [Compound 24, 3-(2,4-dimethylbenzenesulfonyl)-8-[(3R,5S)-3,5-dimethylpiperazin-1-yl]-4H,5H-[1,2,3]triazolo[1,5-a]quinazolin-5-one], the “Ratio IC50 (in presence of HSA)/IC50 (in absence of HSA)” value (“Ratio IC50 (in presence of HSA)/IC50” for short) is on record as “+++ (ratio ≤ 25)”. For the same compound, the IC50 under setting [1] was in the range of 21.4 to 107 µM. Further, the IC50 under setting [2] was 2.14 to 10.7 µM.

On to `Cc1ccc(S(=O)(=O)c2n[nH]n3c2nc(=O)c2ccc(N4CCOC5(CCNCC5)C4)cc23)c(C)c1` [Compound 17, 3-(2,4-dimethylbenzenesulfonyl)-8-{1-oxa-4,9-diazaspiro[5.5]undecan-4-yl}-1H,5H-[1,2,3]triazolo[1,5-a]quinazolin-5-one], for which the “Ratio IC50 (in presence of HSA)/IC50” value was “+++ (ratio ≤ 25)”. Further, under setting [1], the IC50 is 19.7 to 98.3 µM. Under setting [2], this compound gave an IC50 of 1.97 to 9.83 µM.

Take `Cc1ccc(S(=O)(=O)c2n[nH]n3c2nc(=O)c2ccc(N4CCC5(CC4)CNCCO5)cc23)c(C)c1` [Compound 15, 3-(2,4-dimethylbenzenesulfonyl)-8-{1-oxa-4,9-diazaspiro[5.5]undecan-9-yl}-1H,5H-[1,2,3]triazolo[1,5-a]quinazolin-5-one]: the “Ratio IC50 (in presence of HSA)/IC50” value was “+++ (ratio ≤ 25)”. This compound returned an IC50 under setting [1] of 19.7 to 98.3 µM. Under setting [2], this compound returned an IC50 of under 1.97 µM.

Take `Cc1ccc(S(=O)(=O)c2nnn3c2[nH]c(=O)c2ccc(N4CCN(C(C)(C)C)CC4)cc23)c(C)c1` [Compound 41, 8-(4-tert-butylpiperazin-1-yl)-3-(2,4-dimethylbenzenesulfonyl)-4H,5H-[1,2,3]triazolo[1,5-a]quinazolin-5-one]: the “Ratio IC50 (in presence of HSA)/IC50” value was “+++ (ratio ≤ 25)”. This compound came in with an IC50 under setting [1] of 20.2 to 101 µM. Also, the IC50 under setting [2] was in the range of 2.02 to 10.1 µM.

On to `Cc1ccc(S(=O)(=O)c2nnn3c2[nH]c(=O)c2ccc(N4CCN(CCOCCO)CC4)cc23)c(C)c1` [Compound 45, 3-(2,4-dimethylbenzenesulfonyl)-8-{4-[2-(2-hydroxyethoxy)ethyl]piperazin-1-yl}-4H,5H-[1,2,3]triazolo[1,5-a]quinazolin-5-one], for which the “Ratio IC50 (in presence of HSA)/IC50” value is listed as “+++ (ratio ≤ 25)”. The compound also had an IC50 under setting [1] of 19 to 94.9 µM. Also, the IC50 under setting [2] was under 1.9 µM.

In the case of `Cc1ccc(S(=O)(=O)c2nnn3c2[nH]c(=O)c2ccc(N4CC5CCC(C4)N5)cc23)c(C)c1` [Compound 50], the concentration for half-maximal inhibition (IC50) was under 21.5 µM under setting [1] and 2.15 to 10.8 µM under setting [2].

As to “3-(2,4-dimethylbenzenesulfonyl)-8-{9-methyl-2,9-diazaspiro[5.5]undecan-2-yl}-1H,5H-[1,2,3]triazolo[1,5-a]quinazolin-5-one [Compound 5]”, the “Ratio IC50 (in presence of HSA)/IC50” value is recorded as “+++ (ratio ≤ 25)”. The “IC50 at 40 mg/mL HSA” value (LB medium supplemented with 40 mg/mL human serum albumin) was “++ (10 μg/mL < IC50 ≤ 50 μg/mL)”. For the same compound, the “IC50 without HSA” value (LB medium, without HSA) is on record as “+++ (IC50 ≤ 1 μg/mL)”.

With `Cc1ccc(S(=O)(=O)c2nnn3c2[nH]c(=O)c2ccc(N4CCC45CN(C)C5)cc23)c(C)c1` [Compound 11, 3-(2,4-dimethylbenzenesulfonyl)-8-{6-methyl-1,6-diazaspiro[3.3]heptan-1-yl}-4H,5H-[1,2,3]triazolo[1,5-a]quinazolin-5-one], the “Ratio IC50 (in presence of HSA)/IC50” value is listed as “+++ (ratio ≤ 25)”. This compound registered an IC50 under setting [1] of 21.5 to 108 µM. Further, the concentration for half-maximal inhibition (IC50) under setting [2] was in the range of 2.15 to 10.8 µM.

Consider `Cc1ccc(S(=O)(=O)c2nnn3c2[nH]c(=O)c2ccc(N4CCN5CCCC5C4)cc23)c(C)c1` (centres unmarked) [Compound 36, 3-(2,4-dimethylbenzenesulfonyl)-8-{octahydropyrrolo[1,2-a]pyrazin-2-yl}-4H,5H-[1,2,3]triazolo[1,5-a]quinazolin-5-one], for which the “Ratio IC50 (in presence of HSA)/IC50” value is “+++ (ratio ≤ 25)”. For the same compound, under setting [1], the IC50 is 20.9 to 104 µM. Under setting [2], this compound came in with an IC50 of under 2.09 µM.

For the compound `Cc1ccc(S(=O)(=O)c2nnn3c2[nH]c(=O)c2ccc(N4CCn5ccnc5C4)cc23)c(C)c1` [Compound 54, 3-(2,4-dimethylbenzenesulfonyl)-8-{5H,6H,7H,8H-imidazo[1,2-a]pyrazin-7-yl}-4H,5H-[1,2,3]triazolo[1,5-a]quinazolin-5-one], the “Ratio IC50 (in presence of HSA)/IC50” value was “++ (ratio ≤ 125)”. For the same compound, the IC50 under setting [1] was in the range of 21 to 105 µM. The IC50 under setting [2] lay in the range of 2.1 to 10.5 µM.

`Cc1ccc(S(=O)(=O)c2n[nH]n3c2nc(=O)c2ccc(N4CC5(CC(O)C5)C4)cc23)c(C)c1` [Compound 20, 3-(2,4-dimethylbenzenesulfonyl)-8-{6-hydroxy-2-azaspiro[3.3]heptan-2-yl}-1H,5H-[1,2,3]triazolo[1,5-a]quinazolin-5-one]: the “Ratio IC50 (in presence of HSA)/IC50” value is listed as “++ (ratio ≤ 125)”. The same compound came in with an IC50 under setting [1] of 21.5 to 107 µM. In addition, under setting [2], the IC50 is under 2.15 µM.

Turning to `Cc1ccc(S(=O)(=O)c2n[nH]n3c2nc(=O)c2ccc(N4CCC5(CCNC[C@@H]5O)CC4)cc23)c(C)c1` [Compound 19, 3-(2,4-dimethylbenzenesulfonyl)-8-[(7R)-7-hydroxy-3,9-diazaspiro[5.5]undecan-3-yl]-1H,5H-[1,2,3]triazolo[1,5-a]quinazolin-5-one], the “Ratio IC50 (in presence of HSA)/IC50” value is given as “+++ (ratio ≤ 25)”. This compound also gave an IC50 under setting [1] of 19.1 to 95.7 µM. Moreover, under setting [2], the IC50 was in the range of 1.91 to 9.57 µM.

For `CNC1CCN(c2ccc3c(=O)[nH]c4c(S(=O)(=O)c5ccc(C)cc5C)nnn4c3c2)C1` (centres unmarked) [Compound 34, 3-(2,4-dimethylbenzenesulfonyl)-8-[3-(methylamino)pyrrolidin-1-yl]-4H,5H-[1,2,3]triazolo[1,5-a]quinazolin-5-one], the “Ratio IC50 (in presence of HSA)/IC50” value is recorded as “++ (ratio ≤ 125)”. The same compound gave an IC50 under setting [1] of 22.1 to 110 µM. In addition, the IC50 under setting [2] was under 2.21 µM.

For the compound `COCCN1CCN(c2ccc3c(=O)[nH]c4c(S(=O)(=O)c5ccc(C)cc5C)nnn4c3c2)CC1` [Compound 42, 3-(2,4-dimethylbenzenesulfonyl)-8-[4-(2-methoxyethyl)piperazin-1-yl]-4H,5H-[1,2,3]triazolo[1,5-a]quinazolin-5-one], the “Ratio IC50 (in presence of HSA)/IC50” value was “+++ (ratio ≤ 25)”. Also, the IC50 under setting [1] was in the range of 20.1 to 101 µM. Also, the IC50 under setting [2] was in the range of 2.01 to 10.1 µM.

On to `Cc1ccc(S(=O)(=O)c2n[nH]n3c2nc(=O)c2ccc(N4CCC5(CC4)CN(C)CCO5)cc23)c(C)c1` [Compound 16, 3-(2,4-dimethylbenzenesulfonyl)-8-{4-methyl-1-oxa-4,9-diazaspiro[5.5]undecan-9-yl}-1H,5H-[1,2,3]triazolo[1,5-a]quinazolin-5-one], for which the “Ratio IC50 (in presence of HSA)/IC50” value is “++ (ratio ≤ 125)”. Besides, the IC50 under setting [1] fell in the range of 19.1 to 95.7 µM. This compound gave an IC50 under setting [2] of under 1.91 µM.

Regarding `Cc1ccc(S(=O)(=O)c2nnn3c2[nH]c(=O)c2cc(O)c(N4CCN(C)CC4)cc23)c(C)c1` [Compound 1, 3-(2,4-dimethylbenzenesulfonyl)-7-hydroxy-8-(4-methylpiperazin-1-yl)-4H,5H-[1,2,3]triazolo[1,5-a]quinazolin-5-one], the “Ratio IC50 (in presence of HSA)/IC50” value is “+++ (ratio ≤ 25)”. For the same compound, the IC50 under setting [1] is under 21.3 µM. Moreover, the half-inhibitory concentration (IC50) under setting [2] was under 2.13 µM.

As for `Cc1ccc(S(=O)(=O)c2nnn3c2[nH]c(=O)c2ccc(N4CCN(C(C)CO)CC4)cc23)c(C)c1` (centres unmarked) [Compound 44, 3-(2,4-dimethylbenzenesulfonyl)-8-[4-(1-hydroxypropan-2-yl)piperazin-1-yl]-4H,5H-[1,2,3]triazolo[1,5-a]quinazolin-5-one], the “Ratio IC50 (in presence of HSA)/IC50” value is “++ (ratio ≤ 125)”. The compound also had an IC50 under setting [1] of 20.1 to 101 µM. The same compound showed an IC50 under setting [2] of under 2.01 µM.

Usually IC50 stands for the concentration at which inhibition is half-maximal.
